In series [1] the target is T1, human HPK1 (Homo sapiens, UniProt Q92918). The series is described as follows: Assay of in vitro HPK1 enzymatic activity (ADP-Glo). The format is biochemical. Conditions: 7 nM kinase, 20 uM ATP. On the procedure: Compounds were evaluated for their ability to inhibit human HPK1 by IC50 determination using the ADP-Glo method to measure the kinase activity.
Buffer conditions of the enzyme: 50 mM Hepes (pH 7.5), 10 mM MgCl2, 1 mM EGTA, 0.01% Brij35, 2 mM DTT.
Preparation of the Kinase and substrate mixture: the working concentration of the kinase in the HPK1 reaction solution was 7 nM and the working concentration of ATP was 20 uM.
The compound was diluted with DMSO in a dilution plate, with a maximum starting concentration of 1 uM and 10 concentration gradient points (4-fold dilution).
Each of the above 10 concentration gradient points of the compound was then diluted 50-fold into the kinase reaction buffer and shaken on a shaker for 20 min. The kinase was prepared in an enzyme reaction buffer and 2 μl of the HPK1 kinase was added per well of the reaction plate at a HPK1 kinase concentration of 7 nM.
1 μl of diluted compound in the buffer was added per well, and the plate was sealed with a plate sealing film, centrifuged at 1000 g for 30 seconds, and left at room temperature for 10 minutes. An ATP solution was prepared with an enzyme reaction buffer and 2 μl of the ATP solution was added to the reaction plate (the working concentration of ATP was 20 uM). The plate was sealed with a plate sealing film, centrifuged at 1000 g for 30 seconds, and reacted at room temperature for 60 minutes. 4 μL of ADP-Glu was transferred to a 384 reaction plate, centrifuged at 1000 rpm/min for 1 min, and incubated at 25° C. for 40 min. 8 μL of the Detection solution was transferred to a 384 reaction plate, centrifuged at 1000 rpm/min for 1 min, and incubated at 25° C. for 40 min. The RLU (Relative luminescence unit) signal was read using a BMG microplate reader, and the signal intensity was used to characterize the activity level of the kinase.
The kinase activity data was expressed by comparing the kinase activity of the test compound and the blank group (containing only DMSO), and the IC50 value was obtained by curve fitting using the Prism software (GraphPad7.0).

The subject of series [2] is IL2 activation in human PBMC. As to the kind of experiment: IL2 activity assay (ELISA) in human PBMC. To be noted: CD3/CD28 antibody, 24 h. Format: cell-based. On the procedure: The compound was diluted with DMSO in a dilution plate, with a maximum starting concentration of 10 μM, 8 concentration gradient points (3-fold dilution), and then added to the 96-well plate along with the addition of 5 µg/ml CD28 antibody. Incubation was performed for 24 h. • (3) The ELISA plate was washed twice with PBS, and an ELISA dilution was added at 100 µl/well. Then 100 μl of the standard and the incubated samples obtained in step 2 were added separately, and incubated for 2 h at room temperature. • (4) Each well was washed 3 times by adding with 400 μl washing buffer per well, and was finally blotted to dryness with a clean absorbent paper. • (5) 200 μl of the IL2 conjugate was added per well, covered with a fresh tape, and incubated for 2 h at room temperature. Step (4) was repeated. • (6) 200 μl of the substrate was added per well under the protection from light. The plate was incubated at room temperature for 20 min. • (7) 50 μL of a stop solution was added per well. The color of the wells should be from blue to yellow. Signals at […] were read by a microplate reader, and the signal intensity was used to characterize the activity level of IL2. EC50 values were obtained by fitting using the Prism software.

In series [3] the target is T1, human HPK1. The series is described as follows: HPK1 protein degradation assay (WB) in RAMOS cell line. Further details: The RAMOS cell line was selected as the degradation cell line; endogenous in cells; host or cells: RAMOS. Format: cell-based. To be noted: RAMOS cells, 16 h, Western blot. For orientation: In western blotting, separated proteins are transferred to a membrane and probed.

Series [4] can be described thus: Pharmacokinetics of single administration in mice. The format is in vivo, Balb/c mice. Set-up: Vz: unit not given here. Conditions: for clearance / half-life / AUC / bioavailability / Cmax: female, Balb/c, mouse, plasma; for AUC: read-out: AUC; for bioavailability: po 10 mg/kg vs iv 2 mg/kg; for Cmax: read-out: Cmax. As to the method:
Female Balb/c mice (weighing 18-22 g) were fasted overnight prior to the experiment. The test compound was dissolved in the vehicle, DMSO:PEG400:30% captisol:HCl=5:20:70:5 (v/v/v/v), and administered by single oral gavage at a dose of 10 mg/kg or by intravenous injection at a dose of 2 mg/kg. Blood samples were collected from the orbital venous plexus at 15 minutes, 30 minutes, and 1, 2, 4, 6, 8, and 24 h after administration. Approximately 0.08 mL of blood was collected at each time point and placed in a 1.5 mL centrifuge tube containing EDTA-2K anticoagulant. Blood samples were centrifuged (3200 g, 10 min, 4° C.) within 2 h to obtain plasma samples. Plasma samples were frozen at −70° C. to −80° C. in an ultra-low temperature freezer prior to processing. Before sample processing, the plasma samples were taken out of the freezer. After thawing at room temperature, 20 μL of each plasma sample was added into a 96-well plate, and then 120 μL of acetonitrile containing an internal standard was added to precipitate proteins. […] The supernatant was taken and mixed with an equal volume of 0.1% aqueous formic acid solution for LC-MS/MS analysis.

Where two headings read alike, the source gives them in different places.

T1 sequence (Q92918 whole entry): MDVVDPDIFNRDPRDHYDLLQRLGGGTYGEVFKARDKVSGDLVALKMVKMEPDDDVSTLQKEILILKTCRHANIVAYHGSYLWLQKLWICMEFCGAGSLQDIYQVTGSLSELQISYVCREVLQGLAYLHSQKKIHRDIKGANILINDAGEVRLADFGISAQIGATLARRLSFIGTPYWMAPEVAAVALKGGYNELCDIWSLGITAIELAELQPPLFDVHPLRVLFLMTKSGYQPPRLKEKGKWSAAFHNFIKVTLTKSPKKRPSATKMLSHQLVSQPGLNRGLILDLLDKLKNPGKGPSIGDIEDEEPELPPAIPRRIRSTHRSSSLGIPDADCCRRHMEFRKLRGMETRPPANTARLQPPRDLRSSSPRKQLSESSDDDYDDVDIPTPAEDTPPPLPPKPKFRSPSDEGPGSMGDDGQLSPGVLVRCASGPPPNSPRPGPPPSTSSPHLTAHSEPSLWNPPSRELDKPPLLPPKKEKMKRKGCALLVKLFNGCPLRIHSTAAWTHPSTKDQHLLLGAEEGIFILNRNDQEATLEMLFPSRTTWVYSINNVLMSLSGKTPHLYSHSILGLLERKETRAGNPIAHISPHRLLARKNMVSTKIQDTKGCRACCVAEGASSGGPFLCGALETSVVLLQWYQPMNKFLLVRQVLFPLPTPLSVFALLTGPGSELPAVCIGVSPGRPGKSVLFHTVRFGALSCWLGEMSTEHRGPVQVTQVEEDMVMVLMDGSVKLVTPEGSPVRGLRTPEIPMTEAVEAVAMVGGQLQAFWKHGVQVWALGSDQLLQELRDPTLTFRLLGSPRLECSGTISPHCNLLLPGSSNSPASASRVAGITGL

The term IC50 denotes the midpoint of a concentration-inhibition curve. One may read the EC50 as the concentration giving half of the maximal effect. At human HPK1 [1], `CCN1CCC(n2cc(-c3c[nH]c4ncc(-c5cnc(N6CCN(CC7CCN(C(=O)c8ccc(Cl)c(N9CCC(=O)NC9=O)c8)CC7)CC6)c(C)c5)nc34)cn2)CC1` [Compound C003] had an IC50 of 3.6 nM. Also, the EC50 in series [2] turned out to be 111 nM.

As to `CCN1CCC(n2cc(-c3c[nH]c4ncc(-c5cnc(OCC(=O)Nc6ccc(NC7CCC(=O)NC7=O)cc6)c(C)c5)nc34)cn2)CC1` (centres unmarked) [Compound C006], on human HPK1 [1], the IC50 is 3.2 nM. This compound also came in with an EC50 in series [2] of 179 nM.

Consider `CCN1CCC(n2cc(-c3c[nH]c4ncc(-c5cnc(N6CCN(C7CCC(NC(=O)c8cccc(N9CCC(=O)NC9=O)c8)CC7)CC6)c(C)c5)nc34)cn2)CC1` (centres unmarked) [Compound C017], for which the IC50 at human HPK1 [1] was 0.9 nM. The same compound displayed an EC50 in series [2] of 324 nM.

`CCN1CCC(n2cc(-c3c[nH]c4ncc(-c5cnc(N6CCN(C7CCC(NC(=O)c8ccc(Cl)c(N9CCC(=O)NC9=O)c8)CC7)CC6)c(C)c5)nc34)cn2)CC1` (centres unmarked) [Compound C018]: at human HPK1 [1], the IC50 is 1.8 nM. In series [2], the EC50 is 102 nM.

On to `CCN1CCC(n2cc(-c3c[nH]c4ncc(-c5ccc(N6CCN(C7CCC(NC(=O)c8ccc(Cl)c(N9CCC(=O)NC9=O)c8)CC7)CC6)c(C)c5)nc34)cn2)CC1` (centres unmarked) [Compound C021], for which, at human HPK1 [1], the IC50 amounted to 0.5 nM. This compound displayed an EC50 in series [2] of 37.9 nM.

As a reminder, the DC50 is the concentration at which degradation of the target reaches its halfway point. The Dmax is the largest share of the target that was removed. As for `CCN1CCC(n2cc(-c3c[nH]c4ncc(-c5cnc(OCCNC(=O)c6ccc(Cl)c(N7CCC(=O)NC7=O)c6)c(C)c5)nc34)cn2)CC1` [Compound C022], on human HPK1 [1], the midpoint of inhibition, the IC50, lay at 1.4 nM. In series [2], this compound returned an EC50 of 95.6 nM. On human HPK1 [3], the DC50 amounted to 55 nM and the Dmax is 86%.

On human HPK1 [1], `CCN1CCC(n2cc(-c3c[nH]c4ncc(-c5ccc(N6CCC(CC7CCN(C(=O)c8ccc(Cl)c(N9CCC(=O)NC9=O)c8)CC7)CC6)nc5)nc34)cn2)CC1` [Compound C024] displayed an IC50 of 2.3 nM. In series [2], the EC50 was found to be 196 nM. At human HPK1 [3], it took 2.1 nM to reach half-maximal degradation (DC50) and the Dmax is 77%.

For orientation: clearance means the rate of elimination divided by the concentration. As a reminder, the half-life is the time needed for the level to fall by half in the phase considered. The term AUC denotes the area under the concentration-time curve, a measure of exposure. One may read the bioavailability as the share of a dose that reaches the circulation, judged against a reference dose that is usually intravenous. As a reminder, the Cmax is the highest concentration seen after dosing. As for `C/C(=C(Cl)\C=C/CC(=O)N1CCC(CC2CCN(c3ccc(-c4cnc5[nH]cc(-c6cnn(C)c6)c5n4)cn3)CC2)CC1)N1CCC(=O)NC1=O` [Compound C110], the EC50 in series [2] came out at 55.6 nM. Besides, in series [4] (iv 2 mg/kg), the clearance is 8.27 mL/min/kg, the half-life is 0.98 h, the AUC came to 4030 ng·h/mL and the Vz turned out to be 701.3. In addition, in series [4] (po 10 mg/kg), the half-life is 3.35 h, the AUC was found to be 2210 ng·h/mL and the Cmax is 840 ng/mL. This compound also had a bioavailability in series [4] of 17.7%. At human HPK1 [3], this compound showed a DC50 of 9.35 nM and a Dmax of 93%.

Regarding `[2H]C([2H])([2H])n1cc(-c2c[nH]c3ncc(-c4ccc(N5CCC(CC6CCN(C(=O)c7ccc(Cl)c(N8CCC(=O)NC8=O)c7)CC6)CC5)nc4)nc23)cn1` [Compound C160], the EC50 in series [2] is 45.5 nM. Moreover, in series [4] (iv 2 mg/kg), the clearance is 10.7 mL/min/kg, the half-life was 1.25 h, the AUC stood at 5330 ng·h/mL and the Vz is recorded as 602. In addition, in series [4] (po 10 mg/kg), the half-life was 3.19 h, the AUC came out at 7960 ng·h/mL and the highest concentration (Cmax) came out at 2460 ng/mL. Moreover, the bioavailability in series [4] came to 29.6%. Also, on human HPK1 [3], half-maximal degradation (DC50) was put at 12.7 nM and the Dmax turned out to be 88.8%.

For `CCn1cc(-c2c[nH]c3ncc(-c4ccc(N5CCC(CC6CCN(C(=O)c7ccc(Cl)c(N8CCC(=O)NC8=O)c7)CC6)CC5)nc4)nc23)cn1` [Compound C162], the EC50 in series [2] is 27.3 nM. In series [4] (iv 2 mg/kg), the clearance is 12.6 mL/min/kg, the half-life was 0.7 h, the AUC is 2640 ng·h/mL and the Vz is given as 763. Also, in series [4] (po 10 mg/kg), the half-life is 1.66 h, the AUC was 3690 ng·h/mL and the Cmax came to 1370 ng/mL. In series [4], this compound yielded a bioavailability of 28%. On human HPK1 [3], the 50% degradation concentration (DC50) was found to be 29.2 nM and the Dmax amounted to 86.5%.

In series [2], `O=C1CCN(c2cc(C(=O)N3CCC(CC4CCN(c5ccc(-c6cnc7[nH]cc(-c8cnn(C9CC9)c8)c7n6)cn5)CC4)CC3)ccc2Cl)C(=O)N1` [Compound C170] registered an EC50 of 23.8 nM. For the same compound, in series [4] (iv 2 mg/kg), the clearance was 6.9 mL/min/kg, the half-life was 0.7 h, the AUC stood at 4830 ng·h/mL and the Vz was 1329. In series [4] (po 10 mg/kg), the half-life is 4.22 h, the AUC is 6670 ng·h/mL and the Cmax is 1390 ng/mL. The same compound returned a bioavailability in series [4] of 27.6%. For the same compound, at human HPK1 [3], the DC50 came to 52.2 nM and the Dmax was found to be 87.1%.

Values taken from patent US20260116884A1, “PROTAC CHIMERIC COMPOUND, PREPARATION METHOD THEREFOR AND USE THEREOF” (HANGZHOU ZHONGMEIHUADONG PHARMACEUTICAL CO., LTD., priority 2022, published 2026).
